In patent EP0314302A2, “Herbicidal o-carbomethoxy-sulfonylureas” (E.I. DU PONT DE NEMOURS AND COMPANY, priority 1987, dated 1989):

What was measured:
Narrowleaf panicum = assay: Test 11 citrus pots, postemergence to the weeds; type: in vivo, Panicum maximum; conditions: Postemergence 32 g/ha, 0.25% X-77 surfactant, scale 0-100
Method: (§1) Budded citrus seedlings were planted in 30-liter plastic pots which were also seeded with sandbur, guineagrass, narrowleaf panicum, common ragweed, yellow nutsedge, purple nutsedge and bindweed. Compound I was applied preemergence and postemergence to the weeds. Treatments were sprayed to simulate the trunk-to-trunk herbicide application method used in some citrus groves. The compound was also applied postemergence to weeds grown in windowsill flats. The flats were filled with planting medium and seeded with morningglory (Ipomoea spp.). purple nutsedge (Cyperus rotundus), pigweed (Amaranthus spp.), bindweed (Convolvulus spp.), narrowleaf panicum (Panicum maximum), common ragweed (Ambrosia artemisiifolia), sandbur (Cenchrus echinatus), itchgrass (Rottboellia exaltata), johnsongrass (Sorghum halepense), guineagrass (Panicum maximum), smooth crabgrass (Digitaria ischaemum), broadleaf signalgrass (Brachiaria platyphylla), bermudagrass (Cynodon dactylon), goosegrass (Eleusine indica), large crabgrass (Digitaria sanguinalis) and yellow nutsedge (Cyperus esculentus).
(§2) The compound was formulated and sprayed with 0.25% X-77 surfactant in water. Plants were visually rated 21 and 29 days after treatment and compared with appropriate controls. Injury ratings were based on the scale of 0 to 100, where 0 indicates no effect, 20 indicates minimum effect and 100 indicates complete control. […]

Guineagrass = assay: Test 11 citrus pots, postemergence to the weeds; type: in vivo, Panicum maximum; conditions: Postemergence 32 g/ha, 0.25% X-77 surfactant, scale 0-100
Method: as §1, §2

Hordeum vulgare = assay: Test 1 greenhouse, preemergence; type: in vivo; conditions: 21 days, scale 0-100
Method: (§3) Seeds of Bromus tectorum, Kochia scoparia, Salsoa kali, Avena fatua, Convolvulus arvensis, Secale cereale, Setaria viridis and Triticum aestivum were placed in 26-cm plastic pans containing a pasteurized sandy loam soil (pH 6.5, 1% organic matter). Plantings were maintained in the greenhouse for 18-28 days at which time the postemergence treatments were applied using a nonphytotoxic solvent as the carrier for the herbicide. The preemergence segment of the test was seeded immediately before herbicide application using Bromus tectorum, Kochia scoparia, Polygonum convolvulus, Salsoa kali, Avena fatua, Convolvulus arvensis, Secale cereale, Setaria viridis, Aegilops cylindrica, Amaranthus retroflexus, Chenopodium album, Hordeum vulgare, Triticum aestivum, Sorghum bicolor, and Zea mays. All treatments were maintained in the greenhouse for an additional 21 days at which time visual assessment of weed control was determined using a scale of 0 to 100 for each species where 0 represented no control and 100 represented complete control.

Aegilops cylindrica = assay: Test 1 greenhouse, preemergence; type: in vivo; conditions: 21 days, scale 0-100
Method: as §3

Zea mays = assay: Test 1 greenhouse, preemergence; type: in vivo; conditions: 21 days, scale 0-100
Method: as §3

Sorghum bicolor = assay: Test 1 greenhouse, preemergence; type: in vivo; conditions: 21 days, scale 0-100
Method: as §3

Triticum aestivum = assay: Test 1 greenhouse, preemergence; type: in vivo; conditions: 21 days, scale 0-100
Method: as §3

Secale cereale [1] = assay: Test 1 greenhouse, preemergence; type: in vivo; conditions: 21 days, scale 0-100
Method: as §3

Convolvulus arvensis = assay: Test 1 greenhouse, preemergence; type: in vivo; conditions: 21 days, scale 0-100
Method: as §3

Salsoa kali = assay: Test 1 greenhouse, preemergence; type: in vivo; conditions: 21 days, scale 0-100
Method: as §3

Kochia scoparia = assay: Test 1 greenhouse, preemergence; type: in vivo; conditions: 21 days, scale 0-100
Method: as §3

Polygonum convolvulus = assay: Test 1 greenhouse, preemergence; type: in vivo; conditions: 21 days, scale 0-100
Method: as §3

Avena fatua [2] = assay: Test 1 greenhouse, preemergence; type: in vivo; conditions: 21 days, scale 0-100
Method: as §3

Bromus tectorum [3] = assay: Test 1 greenhouse, preemergence; type: in vivo; conditions: 21 days, scale 0-100
Method: as §3

Secale cereale [4] = assay: Test 1 greenhouse, postemergence; type: in vivo; conditions: 21 days, scale 0-100
Method: as §3

Avena fatua [5] = assay: Test 1 greenhouse, postemergence; type: in vivo; conditions: 21 days, scale 0-100
Method: as §3

Bromus tectorum [6] = assay: Test 1 greenhouse, postemergence; type: in vivo; conditions: 21 days, scale 0-100
Method: as §3

Wild mustard = assay: Test 7 postemergence; type: in vivo; conditions: scale 0-100

SMILES: COC(=O)c1cccnc1S(=O)(=O)NC(=O)Nc1nc(OC)cc(OC)n1 [Compound I, 2-[[(4,6-dimethoxypyrimidin-2-yl)aminocarbonyl]aminosulfonyl]-3-pyridinecarboxylic acid, methyl ester]
- Injury ratings (Narrowleaf panicum): 90
- Injury ratings (Guineagrass): 100
- visual assessment of weed control (Hordeum vulgare; 4 g/ha): 50
- visual assessment of weed control (Hordeum vulgare; 8 g/ha): 60
- visual assessment of weed control (Hordeum vulgare; 16 g/ha): 70
- visual assessment of weed control (Hordeum vulgare; 32 g/ha): 80
- visual assessment of weed control (Hordeum vulgare; 64 g/ha): 80
- visual assessment of weed control (Hordeum vulgare; 125 g/ha): 90
- visual assessment of weed control (Aegilops cylindrica; 4 g/ha): 30
- visual assessment of weed control (Aegilops cylindrica; 8 g/ha): 50
- visual assessment of weed control (Aegilops cylindrica; 16 g/ha): 60
- visual assessment of weed control (Aegilops cylindrica; 32 g/ha): 80
- visual assessment of weed control (Aegilops cylindrica; 64 g/ha): 100
- visual assessment of weed control (Aegilops cylindrica; 125 g/ha): 100
- visual assessment of weed control (Zea mays; 4 g/ha): 40
- visual assessment of weed control (Zea mays; 8 g/ha): 50
- visual assessment of weed control (Zea mays; 16 g/ha): 90
- visual assessment of weed control (Zea mays; 32 g/ha): 90
- visual assessment of weed control (Zea mays; 64 g/ha): 90
- visual assessment of weed control (Zea mays; 125 g/ha): 100
- visual assessment of weed control (Sorghum bicolor; 4 g/ha): 90
- visual assessment of weed control (Sorghum bicolor; 8 g/ha): 100
- visual assessment of weed control (Sorghum bicolor; 16 g/ha): 100
- visual assessment of weed control (Sorghum bicolor; 32 g/ha): 100
- visual assessment of weed control (Sorghum bicolor; 64 g/ha): 100
- visual assessment of weed control (Sorghum bicolor; 125 g/ha): 100
- visual assessment of weed control (Triticum aestivum; 4 g/ha): 70
- visual assessment of weed control (Triticum aestivum; 8 g/ha): 100
- visual assessment of weed control (Triticum aestivum; 16 g/ha): 100
- visual assessment of weed control (Triticum aestivum; 32 g/ha): 100
- visual assessment of weed control (Triticum aestivum; 64 g/ha): 100
- visual assessment of weed control (Triticum aestivum; 125 g/ha): 100
- visual assessment of weed control (Secale cereale [1]; 4 g/ha): 20
- visual assessment of weed control (Secale cereale [1]; 8 g/ha): 30
- visual assessment of weed control (Secale cereale [1]; 16 g/ha): 40
- visual assessment of weed control (Secale cereale [1]; 32 g/ha): 70
- visual assessment of weed control (Secale cereale [1]; 64 g/ha): 80
- visual assessment of weed control (Secale cereale [1]; 125 g/ha): 90
- visual assessment of weed control (Convolvulus arvensis; 4 g/ha): 20
- visual assessment of weed control (Convolvulus arvensis; 8 g/ha): 40
- visual assessment of weed control (Convolvulus arvensis; 16 g/ha): 90
- visual assessment of weed control (Convolvulus arvensis; 32 g/ha): 90
- visual assessment of weed control (Convolvulus arvensis; 64 g/ha): 100
- visual assessment of weed control (Convolvulus arvensis; 125 g/ha): 100
- visual assessment of weed control (Salsoa kali; 4 g/ha): 50
- visual assessment of weed control (Salsoa kali; 8 g/ha): 70
- visual assessment of weed control (Salsoa kali; 16 g/ha): 70
- visual assessment of weed control (Salsoa kali; 32 g/ha): 80
- visual assessment of weed control (Salsoa kali; 64 g/ha): 100
- visual assessment of weed control (Salsoa kali; 125 g/ha): 100
- visual assessment of weed control (Kochia scoparia; 4 g/ha): 80
- visual assessment of weed control (Kochia scoparia; 8 g/ha): 80
- visual assessment of weed control (Kochia scoparia; 16 g/ha): 100
- visual assessment of weed control (Kochia scoparia; 32 g/ha): 100
- visual assessment of weed control (Kochia scoparia; 64 g/ha): 100
- visual assessment of weed control (Kochia scoparia; 125 g/ha): 100
- visual assessment of weed control (Polygonum convolvulus; 4 g/ha): 20
- visual assessment of weed control (Polygonum convolvulus; 8 g/ha): 20
- visual assessment of weed control (Polygonum convolvulus; 16 g/ha): 80
- visual assessment of weed control (Polygonum convolvulus; 32 g/ha): 80
- visual assessment of weed control (Polygonum convolvulus; 64 g/ha): 80
- visual assessment of weed control (Polygonum convolvulus; 125 g/ha): 100
- visual assessment of weed control (Avena fatua [2]; 4 g/ha): 0
- visual assessment of weed control (Avena fatua [2]; 8 g/ha): 40
- visual assessment of weed control (Avena fatua [2]; 16 g/ha): 50
- visual assessment of weed control (Avena fatua [2]; 32 g/ha): 60
- visual assessment of weed control (Avena fatua [2]; 64 g/ha): 90
- visual assessment of weed control (Avena fatua [2]; 125 g/ha): 100
- visual assessment of weed control (Bromus tectorum [3]; 4 g/ha): 50
- visual assessment of weed control (Bromus tectorum [3]; 8 g/ha): 70
- visual assessment of weed control (Bromus tectorum [3]; 16 g/ha): 80
- visual assessment of weed control (Bromus tectorum [3]; 32 g/ha): 90
- visual assessment of weed control (Bromus tectorum [3]; 64 g/ha): 90
- visual assessment of weed control (Bromus tectorum [3]; 125 g/ha): 100
- visual assessment of weed control (Secale cereale [4]; 4 g/ha): 70
- visual assessment of weed control (Secale cereale [4]; 8 g/ha): 100
- visual assessment of weed control (Secale cereale [4]; 16 g/ha): 100
- visual assessment of weed control (Secale cereale [4]; 32 g/ha): 100
- visual assessment of weed control (Secale cereale [4]; 64 g/ha): 100
- visual assessment of weed control (Secale cereale [4]; 125 g/ha): 100
- visual assessment of weed control (Avena fatua [5]; 4 g/ha): 80
- visual assessment of weed control (Avena fatua [5]; 8 g/ha): 80
- visual assessment of weed control (Avena fatua [5]; 16 g/ha): 100
- visual assessment of weed control (Avena fatua [5]; 32 g/ha): 100
- visual assessment of weed control (Avena fatua [5]; 64 g/ha): 100
- visual assessment of weed control (Avena fatua [5]; 125 g/ha): 100
- visual assessment of weed control (Bromus tectorum [6]; 4 g/ha): 100
- visual assessment of weed control (Bromus tectorum [6]; 8 g/ha): 100
- visual assessment of weed control (Bromus tectorum [6]; 16 g/ha): 100
- visual assessment of weed control (Bromus tectorum [6]; 32 g/ha): 100
- visual assessment of weed control (Bromus tectorum [6]; 64 g/ha): 100
- visual assessment of weed control (Bromus tectorum [6]; 125 g/ha): 100
- Plant Injury Rating 18 DAT (Wild mustard; 16 g/ha): 100
- Plant Injury Rating 18 DAT (Wild mustard; 32 g/ha): 100
